Experimental data published in ChEMBL document CHEMBL5608217, “New potent EV-A71 antivirals targeting capsid” (Eur J Med Chem, 2024).
Activity calls are given as the source filed them. No cut-off for these calls is given here.

Columns and labels:
Enterovirus A71 [1] = test: Antiviral activity against Enterovirus A71 infected in human MRC5 cells assessed as reduction in viral replication incubated for 72 hrs by RT-qPCR analysis; type: functional, organism-based; settings: Enterovirus A, MRC5, 72 h
[2] = Cytotoxicity against human RD cells; type: toxicity, cell-based
[3] = Cytotoxicity against human MRC5 cells; type: toxicity, cell-based
Enterovirus A71 [4] = test: Antiviral activity against Enterovirus A71 infected in human RD cells assessed as reduction in viral replication incubated for 72 hrs by RT-qPCR analysis; type: functional, organism-based; settings: Enterovirus A
[5] = Selectivity index, ratio of CC50 for cytotoxicity against human MRC5 cells to EC50 for antiviral activity against Enterovirus A71 infected in human MRC5 cells; type: toxicity, cell-based; settings: read-out: Ratio CC50/EC50
[6] = Cytotoxicity against Chinese hamster CHO-K1 cells incubated for 24 hrs by neutral red dye uptake assay; type: toxicity, cell-based, Cricetulus griseus
Enterovirus A71 [7] = test: Antiviral activity against Enterovirus A71 infected in human MRC5 cells assessed as inhibition of viral replication at 0.31 to 40 uM incubated for 72 hrs by RT-qPCR analysis relative to control; type: functional; settings: dose 0.31-40 µM
[8] = Genotoxicity in Chinese hamster CHO-K1 cells assessed as increase in micronucleated cell rate at […] incubated for 3 hrs in presence of Sprague-Dawley rat liver S9 fraction by Giemsa staining based micronucleus assay; type: toxicity, subcellular, Cricetulus griseus; settings: s9, 3 h, dose lower 1 g/L
[9] = Selectivity index, ratio of CC50 for cytotoxicity against human RD cells to EC50 for antiviral activity against Enterovirus A71 infected in human RD cells; type: toxicity, cell-based; settings: read-out: Ratio CC50/EC50
Enterovirus A71 [10] = test: Antiviral activity against Enterovirus A71 infected in human RD cells assessed as inhibition of viral replication at 0.31 to 40 uM incubated for 72 hrs by RT-qPCR analysis relative to control; type: functional; settings: dose 0.31-40 µM
[11] = Genotoxicity in Chinese hamster CHO-K1 cells assessed as increase in micronucleated cell rate at […] incubated for 3 hrs in absence of Sprague-Dawley rat liver S9 fraction by Giemsa staining based micronucleus assay; type: toxicity, Cricetulus griseus; settings: cho-k1, 3 h, dose lower 1 g/L
rhinovirus B14 = test: Antiviral activity against Human rhinovirus B14 infected in human HeLa-RH cells assessed as inhibition of virus induced cytopathic effect incubated for 3 days by MTS assay; type: functional, organism-based; settings: Rhinovirus B, 72 h

O=Cc1ccc(-c2ccc(SCc3ccc(-n4cncn4)cc3)nc2)cc1
EC50 (Enterovirus A71 [1]): > 20 µM

COc1ccc2[nH]c(SCc3ccc(-n4cncn4)cc3)nc2c1
CC50 [2]: > 40 µM
CC50 [3]: > 40 µM
EC50 (Enterovirus A71 [4]): > 40 µM
EC50 (Enterovirus A71 [1]): > 40 µM

CCOc1ccc(-c2ccc(SCc3ccc(-n4cncn4)cc3)cc2)cc1
EC50 (Enterovirus A71 [1]): > 20 µM

OCc1ccc(-c2ccc(SCc3ccc(-n4cncn4)cc3)cc2)cc1
EC50 (Enterovirus A71 [1]): > 20 µM

CN1CCC(c2ccc(-c3ccc(CSc4ccc(-c5ccc(CO)cc5)cn4)cc3)cc2)CC1
EC50 (Enterovirus A71 [1]): > 20 µM

Cc1ccc2oc(SCc3ccc(-n4cncn4)cc3)nc2c1
EC50 (Enterovirus A71 [1]): > 20 µM

Cn1nccc1-c1ccc(SCc2ccc(-n3cncn3)cc2)nc1
EC50 (Enterovirus A71 [1]): > 20 µM

Cn1nccc1-c1ccc(SCc2ccc(-n3cncn3)cc2)cc1
CC50 [2]: > 40 µM
selectivity ratio [5]: > 35
CC50 [3]: > 20 µM
EC50 (Enterovirus A71 [4]): 4.38 µM
CC50 at 24 h [6]: 44.8 µM
inhibition (INH) (Enterovirus A71 [7]): 100%
EC50 (Enterovirus A71 [1]): 0.57 µM
Activity [8]: Non-Toxic
selectivity ratio [9]: > 9
inhibition (INH) (Enterovirus A71 [10]): 100%
Activity [11]: Non-Toxic

OCc1ccc(-c2ccc(SCc3ccc(-c4ccc(C(F)(F)F)cc4)cc3)nc2)cc1
EC50 (Enterovirus A71 [1]): > 20 µM

CCOc1ccc(-c2ccc(CSc3ccc(-c4ccc(CO)cc4)cc3)cc2)cc1
EC50 (Enterovirus A71 [1]): > 20 µM

Clc1ccc2oc(SCc3ccc(-n4cncn4)cc3)nc2c1
EC50 (Enterovirus A71 [1]): > 20 µM

OCc1ccc(-c2ccc(SCc3ccc(-c4ccc(O)cc4)cc3)nc2)cc1
EC50 (Enterovirus A71 [1]): > 20 µM

OCc1ccc(-c2ccc(SCc3ccc(-c4ccc(N5CCOCC5)cc4)cc3)nc2)cc1
CC50 [2]: > 40 µM
selectivity ratio [5]: > 3.1
CC50 [3]: > 20 µM
EC50 (Enterovirus A71 [4]): 19.7 µM
CC50 at 24 h [6]: 45.8 µM
EC50 (Enterovirus A71 [1]): 6.38 µM
Activity [8]: Non-Toxic
selectivity ratio [9]: > 2
Activity [11]: Non-Toxic

OCc1ccc(-c2ccc(SCc3ccc(-n4cncn4)cc3)nc2)cc1
CC50 [2]: > 40 µM
selectivity ratio [5]: > 68
CC50 [3]: > 20 µM
EC50 (Enterovirus A71 [4]): 1.66 µM
CC50 at 24 h [6]: 41.3 µM
inhibition (Enterovirus A71 [7]): Active
EC50 (Enterovirus A71 [1]): 0.29 µM
Activity [8]: Non-Toxic
selectivity ratio [9]: > 24
inhibition (Enterovirus A71 [10]): Active
Activity [11]: Non-Toxic

CCOc1ccc(-c2ccc(CSc3nc4cc(OC)ccc4o3)cc2)cc1
EC50 (Enterovirus A71 [1]): > 20 µM

Fc1ccc(-c2ccc(SCc3ccc(-n4cncn4)cc3)cc2)cc1C(F)(F)F
EC50 (Enterovirus A71 [1]): > 20 µM

COc1ccc2oc(SCc3ccc(-n4cncn4)cc3)nc2c1
CC50 [2]: 22.1 µM
selectivity ratio [5]: < 1
CC50 [3]: > 20 µM
EC50 (Enterovirus A71 [4]): 28.5 µM
CC50 at 24 h [6]: 32.1 µM
EC50 (Enterovirus A71 [1]): 1.67 µM
Activity [8]: Non-Toxic
Activity [11]: Non-Toxic

FC(F)(F)c1ccc2c(SCc3ccc(-n4cncn4)cc3)ccnc2c1
CC50 [2]: 20.8 µM
CC50 [3]: > 40 µM
EC50 (Enterovirus A71 [4]): 12.7 µM
EC50 (Enterovirus A71 [1]): 28 µM

Cc1cccc2c1[nH]c1nc(SCc3ccc(-n4cncn4)cc3)nnc12
CC50 [2]: 8.89 µM
CC50 [3]: 15.6 µM
EC50 (Enterovirus A71 [4]): 4.65 µM
EC50 (Enterovirus A71 [1]): 26.5 µM

CN(C)c1ccc(-c2ccc(SCc3ccc(-n4cncn4)cc3)cc2)cc1
EC50 (Enterovirus A71 [1]): > 20 µM

CCOc1ccc(-c2ccc(CSc3ccc(-c4ccc(CO)cc4)cn3)cc2)cc1
EC50 (Enterovirus A71 [1]): > 20 µM

c1ncn(-c2ccc(CSc3ccc(-c4ccc(N5CCOCC5)cc4)cc3)cc2)n1
EC50 (Enterovirus A71 [1]): > 20 µM

c1ccc2nc(SCc3ccc(-n4cncn4)cc3)ccc2c1
CC50 [2]: > 40 µM
CC50 [3]: > 40 µM
EC50 (Enterovirus A71 [4]): > 40 µM
EC50 (Enterovirus A71 [1]): 39.7 µM

c1ccc2[nH]c(SCc3ccc(-n4cncn4)cc3)nc2c1
EC50 (Enterovirus A71 [1]): > 20 µM

COc1cc(C[C@H](O)c2ccc(C#N)cc2)c([N+](=O)[O-])cc1OC
EC50 (rhinovirus B14): 2 µM

CCOc1ccc(-c2ccc(SCc3ccc(-n4cncn4)cc3)nc2)cc1
EC50 (Enterovirus A71 [1]): > 20 µM

COc1ccc2oc(SCc3ccc(-c4ccc(N(C)C)cc4)cc3)nc2c1
EC50 (Enterovirus A71 [1]): > 20 µM

FC(F)(F)c1ccc(-c2ccc(SCc3ccc(-n4cncn4)cc3)cc2)cc1
EC50 (Enterovirus A71 [1]): > 20 µM

c1ccc2sc(SCc3ccc(-n4cncn4)cc3)nc2c1
EC50 (Enterovirus A71 [1]): > 20 µM

CN(C)c1ccc(-c2ccc(CSc3ccc(-c4ccc(CO)cc4)cn3)cc2)cc1
EC50 (Enterovirus A71 [1]): > 20 µM

c1ccc2oc(SCc3ccc(-n4cncn4)cc3)nc2c1
EC50 (Enterovirus A71 [1]): > 20 µM

CCOc1noc2cc(OCCC3CCN(c4ccc(C)nn4)CC3)ccc12 [VAPENDAVIR]
CC50 [2]: > 63 µM
CC50 [3]: > 20 µM

c1ccc2nc(SCc3ccc(-n4cncn4)cc3)cnc2c1
CC50 [2]: > 40 µM
CC50 [3]: > 40 µM
EC50 (Enterovirus A71 [4]): 6.8 µM
EC50 (Enterovirus A71 [1]): 38.1 µM

Cc1ccc(-c2ccc(SCc3ccc(-n4cncn4)cc3)cc2)cc1
EC50 (Enterovirus A71 [1]): > 20 µM
